In US20240025918A1, “KRAS G12D Inhibitors” (Jacobio Pharmaceuticals Co., Ltd, priority 2020, published 2024):

Assays:
[1] = biological target: T1, GDP-loaded HIS-KRAS(G12D, aa 1-169) (Homo sapiens, UniProt P01116, G12D); assay: SOS1 catalyzed nucleotide exchange assay (TR-FRET); format: biochemical; conditions: 4 hours at 25° C.
T1 construct: GDP-loaded HIS-KRAS(G12D, aa 1-169)
Procedure: GDP-loaded HIS-KRAS(G12D, aa 1-169) was pre-incubated with a compound in the presence of 10 nM GDPin a 384-well plate (Greiner) for 15 min, then purified SOS1 ExD(Flag tag, aa 564-1049), BODIPY™ FL GTP (Invitrogen) and MAb (monoclonal antibody) Anti 6HIS-Tb cryptate Gold (Cisbio) were added to the assay wells (Final concentration: 1.5 nM GDP-loaded HIS-KRAS(G12D), 5 nM GDP, 0.5 μM SOS1 ExD, 80 nM BODIPY™ FL GTP, 52.5 ng/mL MAb Anti 6HIS-Tb cryptate Gold) and incubated for 4 hours at 25° C. Wells containing same percent of DMSO served as vehicle control, and wells without KRAS served as low control. TR-FRET signals were read on Tecan Spark multimode microplate reader. The parameters were F486: Excitation 340 nm, Emission 486 nm, Lag time 100 μs, Integration time 200 μs; F515: Excitation 340 nm, Emission 515 nm, Lag time 100 μs, Integration time 200 μs. TR-FRET ratios for each individual wells were calculated by equation: TR-FRET ratio=(Signal F515/Signal F486)*10000. The percent of activation of compounds treated wells were normalized between vehicle control and low control (% Activation=(TR-FRET ratioCompound treated−TR-FRET ratioLow control)/(TR-FRET ratioVehicle control−TR-FRET ratioLow control)*100%). Then the data were analyzed by fitting a 4-parameter logistic model or calculating in Excel to calculate IC50 values.

[2] = biological target: T2, GppNp-loaded HIS-KRAS(G12D, aa 1-169) and cRAF RBD (Homo sapiens, UniProt P01116, G12D); assay: GTP-KRAS and cRAF interaction assay (HTRF); format: biochemical; conditions: 2 hours at 25° C.
T2 construct: GppNp-loaded HIS-KRAS(G12D, aa 1-169)
Procedure: GppNp-loaded HIS-KRAS(G12D, aa 1-169) was pre-incubated with a compound in the presence of 200 μM GTP in a 384-well plate (Greiner) for 15 min, then cRAF RBD(GST tag, aa 50-132, CreativeBioMart), MAb Anti GST-d2 (Cisbio) and MAb Anti 6HIS-Tb cryptate Gold (Cisbio) were added to the assay wells (Final concentration: 2.0 nM GppNp-loaded HIS-KRAS(G12D), 100 μM GTP, 35 nM cRAF RBD, 1 μg/mL MAb Anti GST-d2, 52.5 ng/mL MAb Anti 6HIS-Tb cryptate Gold) and incubated for 2 hours at 25° C. Wells containing same percent of DMSO served as vehicle control, and wells without KRAS served as low control. HTRF signals were read on Tecan Spark multimode microplate reader and HTRF ratios were calculated under manufacturer's instructions. The percent of activation of compounds treated wells were normalized between vehicle control and low control (% Activation=(HTRF ratioCompound treated−HTRF ratioLow control)/(HTRF ratioVehicle control−HTRF ratioLow control)*100%). Then the data were analyzed by fitting a 4-parameter logistic model or calculating in Excel to calculate IC50 values.

[3] = system: AsPC-1; assay: Cell growth inhibition assay, AsPC-1 (CellTiter-Glo); format: cell-based; conditions: Homo sapiens, ASPC1, 144 h; AsPC-1 cell viability, 6 days incubation
Procedure: AsPC-1 cultured in RPMI-1640 medium (Gibco) containing 10% fetal bovine serum (Gibco). Cells in culture medium were plated in 96-well plates at a concentration of 1000 cells/well (100 μL/well) and allowed to attach overnight.
(§1) The next day, compounds were diluted in culture medium and added to the plates. After 6 days incubation in a 37° C./5% CO2 cell incubator, the cell viability was detected by CellTiter-Glo® Luminescent Cell Viability Assay kit (Promega). Luminescent signals were read on Tecan Spark multimode microplate reader and analyzed using a 4-parameter logistic model to calculate IC50 values.

[4] = system: AGS cells expressing KRAS G12D; assay: Phospho-ERK1/2(THR202/TYR204) HTRF assay; format: cell-based; conditions: Homo sapiens; Phospho-ERK1/2 in AGS cells, 2 hours incubation
Procedure: AGS cells expressing KRAS G12D were cultured in F12K medium (Gibco) containing 10% fetal bovine serum (Gibco). The AGS cells in culture medium were seeded in 96-well plates at a concentration of 40,000 cells/well and then put in a 37° C./5% CO2 cell incubator to incubate overnight. The next day, culture medium was removed and the compound diluted in assay medium (F12K, 0.1% FBS) was added in each well. After 2 hours incubation in a 37° C./5% CO2 cell incubator, the assay medium in 96-well plates was removed, then 50 μL of 1× blocking reagent-supplemented lysis buffer (Cisbio) was added and the plates were incubated at 25° C. for 45 min with shaking. 10 μL of cell lysates from the 96-well plates were transferred to a 384-well plate (Greiner) containing 2.5 μL/well HTRF® pre-mixed antibodies (Cisbio 64AERPEH). Incubate 4 hours at 25° C. and then read HTRF signals on Tecan Spark multimode microplate reader. The data were analyzed using a 4-parameter logistic model to calculate IC50 values.

[5] = system: AGS; assay: Cell growth inhibition assay, AGS (CellTiter-Glo); format: cell-based; conditions: Homo sapiens, 144 h; AGS cell viability, 6 days incubation
Procedure: AGS cultured in F12K medium (Gibco) containing 10% fetal bovine serum (Gibco). Cells in culture medium were plated in 96-well plates at a concentration of 500 cells/well (100 μL/well) and allowed to attach overnight.
as §1

T2 sequence (P01116 1-169 isoform P01116-2 G12D): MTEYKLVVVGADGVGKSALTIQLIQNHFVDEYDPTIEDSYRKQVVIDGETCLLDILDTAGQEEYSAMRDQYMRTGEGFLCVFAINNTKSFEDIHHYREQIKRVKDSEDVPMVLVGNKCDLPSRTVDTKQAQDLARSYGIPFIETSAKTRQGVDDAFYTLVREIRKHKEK
T1 sequence (P01116 1-169 isoform P01116-2 G12D): as above

SMILES | IC50 [1] | IC50 [2] | IC50 [3] | IC50 [4] | IC50 [5]
C#Cc1c(F)ccc2cc(O)cc(-c3ccc4c(N5CC6CCC(C5)N6)nc(OCC5(CN6C7CCC6COC7)CC5)nc4c3F)c12 [Compound 7] | 6.27 nM | 27.2 nM | 72.2 nM | 3.53 nM | 5.66 nM
C#Cc1cccc2cc(O)cc(-c3ccc4c(N5CC6CCC(C5)N6)nc(OCC5(CN6CC7CCC(C6)O7)CC5)nc4c3F)c12 [Compound 8] | 16.8 nM | 307 nM | 55.3 nM | 21.2 nM | 31.6 nM
C#Cc1cccc2cc(O)cc(-c3ccc4c(N5CC6CCC(C5)N6)nc(OCC5(CN6CC7CC6CO7)CC5)nc4c3F)c12 (stereo not drawn) [Compound 9] | 7.77 nM | 62 nM | 138 nM | 2.59 nM | 10.5 nM
C#Cc1cccc2cc(O)cc(-c3ccc4c(N5CC6CCC(C5)N6)nc(OCC5(CN6C7CCC6COC7)CC5)nc4c3F)c12 [Compound 10] | 12.1 nM | 77.3 nM | 57.6 nM | 6.18 nM | 11.1 nM
C#Cc1cccc2cc(O)cc(-c3c(F)cc4c(N5CC6CCC(C5)N6)nc(OCC5(CN6CCC7(CCO7)CC6)CC5)nc4c3F)c12 [Compound 11] | 31.6 nM | 86.6 nM | 214 nM | 9.49 nM | 15.7 nM
C#Cc1cccc2cc(O)cc(-c3c(F)cc4c(N5CC6CCC(C5)N6)nc(OCC5(CN6CCC7(CC6)COC7)CC5)nc4c3F)c12 [Compound 12] | 14.2 nM | 80.8 nM | 83.2 nM | 1.94 nM | 3.69 nM
C#Cc1cccc2cc(O)cc(-c3c(F)cc4c(N5CC6CCC(C5)N6)nc(OCC5(CN6CCC7(C6)CC7(F)F)CC5)nc4c3F)c12 (stereo not drawn) [Compound 14] | 4.36 nM | 79.2 nM | 26.5 nM | 182 nM | 10.7 nM
C#Cc1cccc2cc(O)cc(-c3c(F)cc4c(N5CC6CCC(C5)N6)nc(OCC5(CN6CCc7cccnc7C6)CC5)nc4c3F)c12 [Compound 15] | 6.06 nM | 157 nM | 97.3 nM | 68.9 nM | 13.9 nM
C#Cc1cccc2cc(O)cc(-c3c(F)cc4c(N5CC6CCC(C5)N6)nc(OCC5(CN6Cc7cccnc7C6)CC5)nc4c3F)c12 [Compound 17] | 1.99 nM | 273 nM | 158 nM | 56.3 nM | 11.8 nM
C#Cc1cccc2cc(O)cc(-c3c(F)cc4c(N5CC6CCC(C5)N6)nc(OCC5(CN6CC7(COC7)C6)CC5)nc4c3F)c12 [Compound 19] | 2.27 nM | 66.9 nM | 710 nM | 19.8 nM | 12.9 nM
C#Cc1cccc2cc(O)cc(-c3c(F)cc4c(N5CC6CCC(C5)N6)nc(OCC5(CN6CC7(CCC7)C6)CC5)nc4c3F)c12 [Compound 20] | 1.33 nM | 58.1 nM | 264 nM | 39.2 nM | 23.3 nM
C#Cc1cccc2cc(O)cc(-c3c(F)cc4c(N5CC6CCC(C5)N6)nc(OCC5(CN6CC(OC)C6)CC5)nc4c3F)c12 [Compound 21] | 1.94 nM | 74.5 nM | 334 nM | 13.5 nM | 16.3 nM
C#Cc1cccc2cc(O)cc(-c3c(F)cc4c(N5CC6CCC(C5)N6)nc(OCC5(CN6CC7(CCOCC7)C6)CC5)nc4c3F)c12 [Compound 22] | 1.39 nM | 40.2 nM | 413 nM | 6.95 nM | 19.7 nM
C#Cc1cccc2cc(O)cc(-c3c(F)cc4c(N5CC6CCC(C5)N6)nc(OCC5(CN6CC7COCC7C6)CC5)nc4c3F)c12 (stereo not drawn) [Compound 24] | 1.26 nM | 25.2 nM | 36 nM | 2.48 nM | 3.66 nM
C#Cc1cccc2cc(O)cc(-c3c(F)cc4c(N5CC6CCC(C5)N6)nc(OCC5(CN6CC7CCCC7C6)CC5)nc4c3F)c12 (stereo not drawn) [Compound 25] | 1.48 nM | 51 nM | 96.6 nM | 14.7 nM | 13.2 nM
C#Cc1cccc2cc(O)cc(-c3c(F)cc4c(N5CC6CCC(C5)N6)nc(OCC5(CN6CC(C)(OC)C6)CC5)nc4c3F)c12 [Compound 27] | 9.61 nM | 190 nM | 533 nM | 19.3 nM | 29.3 nM
C#Cc1cccc2cc(O)cc(-c3c(F)cc4c(N5CC6CCC(C5)N6)nc(OCC5(CN6CCC7(CC6)CC7)CC5)nc4c3F)c12 [Compound 28] | 1.76 nM | 52.5 nM | 98.6 nM | 26.2 nM | 8.37 nM
C#Cc1cccc2cc(O)cc(-c3ccc4c(N5CC6CCC(C5)N6)nc(OCC5(CN6CCC7(CC6)CC7)CC5)nc4c3F)c12 [Compound 30] | 28.6 nM | 133 nM | 81.7 nM | 31.5 nM | 9.77 nM
C#Cc1cccc2cc(O)cc(-c3ccc4c(N5CC6CCC(C5)N6)nc(OCC5(CN6CC(OC)C6)CC5)nc4c3F)c12 [Compound 31] | 23.2 nM | 108 nM | 215 nM | 13.4 nM | 26.2 nM
C#Cc1cccc2cc(O)cc(-c3ccc4c(N5CC6CCC(C5)N6)nc(OCC5(CN6CC7CCCC7C6)CC5)nc4c3F)c12 (stereo not drawn) [Compound 32] | 35.5 nM | 93.1 nM | 67.1 nM | 34.8 nM | 8.82 nM
C#Cc1cccc2cc(O)cc(-c3ccc4c(N5CC6CCC(C5)N6)nc(OCC5(CN6CC(C)(OC)C6)CC5)nc4c3F)c12 [Compound 33] | 31.6 nM | 126 nM | 151 nM | 12.8 nM | 15.3 nM
C#Cc1cccc2cc(O)cc(-c3c(F)cc4c(N5CC6CCC(C5)N6)nc(OCC5(CN6CCC7(CCCCO7)C6)CC5)nc4c3F)c12 (stereo not drawn) [Compound 34] | 3.07 nM | 82.6 nM | 208 nM | 38.9 nM | 16.9 nM
C#Cc1cccc2cc(O)cc(-c3c(F)cc4c(N5CC6CCC(C5)N6)nc(OCC5(CN6CCOCC67CCC7)CC5)nc4c3F)c12 [Compound 35] | 2.17 nM | 157 nM | 59.6 nM | 20.2 nM | 8.43 nM
C#Cc1cccc2cc(O)cc(-c3c(F)cc4c(N5CC6CCC(C5)N6)nc(OCC5(CN6C[C@H]7C[C@@H]6CO7)CC5)nc4c3F)c12 [Compound 36] | 2.1 nM | 35.1 nM | 77.4 nM | 3.07 nM | 8.71 nM
